Results on eight compounds are retold here after ChEMBL document CHEMBL1142376, “Novel CADD-based peptidyl vinyl ester derivatives as potential proteasome inhibitors” (Bioorg Med Chem Lett, 2008).

Test [1] is described as follows: Inhibition of chymotrypsin-like activity of 20S proteasome.
A short description of test [2]: Inhibition of trypsin-like activity of 20S proteasome.
A further test concerns KB. In words: Antiproliferative activity against human KB cells at 10 umole. The test is classed as functional.
The test system of another test is HL-60. In words: Antiproliferative activity against human HL60 cells at 10 umole. The test is classed as functional.
Another test relates to Bel-7402. Kind of test: Antiproliferative activity against human Bel7402 cells at 10 umole. Type of test: functional.
Test [3] can be described thus: Inhibition of post acidic-like activity of 20S proteasome.
The test system of another test is BGC-823. Kind of test: Antiproliferative activity against human BGC823 cells at 10 umole. Type of test: functional.

Take `CCOC(=O)/C=C/[C@H](Cc1ccc(O)cc1)NC(=O)[C@H](CC(C)C)NC(=O)OC(C)(C)C`: the IC50 in test [1], in test [2] and in test [3] was above 100 µmol in each case. Also, the Activity in the test on KB is 1.72%; in the test on HL-60, 5.87%; with Bel-7402, -10.27%; with BGC-823, 17.01%.
`CCOC(=O)/C=C/[C@H](Cc1ccccc1)NC(=O)[C@H](CO)NC(=O)[C@H](Cc1ccccc1)NC(=O)OC(C)(C)C`: the IC50 in test [1], in test [2] and in test [3] was above 100 µmol each time. Moreover, the Activity is given as 5.23% in the test with KB, 21.08% in the test on HL-60, -8.04% in the test on Bel-7402 and 8.28% in the test with BGC-823.
`CC(C)(C)OC(=O)N[C@@H](Cc1ccccc1)C(=O)N[C@@H](CO)C(=O)N[C@H](/C=C/C(=O)O)C[C@@H]1CCNC1=O`: the IC50 in test [1], in test [2] and in test [3] was above 100 µmol each time. Besides, the Activity in the test with KB was -15.6%; in the test on HL-60, 31.04%; in the test on Bel-7402 it was 1.66%; in the test with BGC-823 it was 16.9%.
Turning to `CCOC(=O)/C=C/[C@H](Cc1ccc(O)cc1)NC(=O)[C@H](CC(C)C)NC(=O)[C@H](CC(C)C)NC(=O)OC(C)(C)C`, the IC50 in test [1], in test [2] and in test [3] was above 100 µmol throughout. The Activity in the test with KB is -5.99%; with HL-60, -2.64%; with Bel-7402, -6.95%; with BGC-823 it was 0.02%.
Consider `CCOC(=O)/C=C/[C@H](C[C@@H]1CCNC1=O)NC(=O)[C@H](CO)NC(=O)[C@@H](NC(=O)OC(C)(C)C)C(C)C`, for which the IC50 in test [1], in test [2] and in test [3] was above 100 µmol in each case. In addition, the Activity is -3.45% in the test on KB, -1.94% in the test with HL-60, -4.98% in the test on Bel-7402 and 5.52% in the test with BGC-823.
In the case of `CCOC(=O)/C=C/[C@H](C[C@@H]1CCNC1=O)NC(=O)[C@H](CC(C)C)NC(=O)[C@H](CC(C)C)NC(=O)OC(C)(C)C`, the IC50 in test [1], in test [2] and in test [3] was above 100 µmol in each case. The Activity in the test with KB was -14.03%; with HL-60, 36.97%; in the test with Bel-7402, -2.4%; in the test on BGC-823 it was 21.44%.
For the compound `CCOC(=O)/C=C/[C@H](Cc1ccc(O)cc1)NC(=O)[C@@H](NC(=O)OC(C)(C)C)[C@@H](C)CC`, the IC50 in test [1], in test [2] and in test [3] was above 100 µmol in each case. The Activity amounted to 5.27% with KB, 21.66% with HL-60, 3.32% in the test on Bel-7402 and 23.06% in the test with BGC-823.
Take `CCOC(=O)/C=C/[C@H](C[C@@H]1CCNC1=O)NC(=O)[C@H](Cc1ccccc1)NC(=O)[C@H](CC(C)C)NC(=O)OC(C)(C)C`: the IC50 in test [1], in test [2] and in test [3] was above 100 µmol throughout. Also, the Activity in the test with KB is given as -1.56%; with HL-60, -7.61%; in the test on Bel-7402, -1.63%; in the test on BGC-823, 13.89%.
